In PubChem BioAssay AID1918941 (Molecular Pharmacology Branch, DTP, NCI, 2023):

System: SW 1271 complex spheroids, viability
Assay: Anticancer human tumor SW 1271 cell line growth inhibition [LSD1];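 also: spheroids exposed to agents for 7 days before luminescence read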;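 as to viability, T/C: 100% = DMSO vehicle control viability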
Conditions: for IC50: curve of first compound; for viability, T/C: stronger effect = lower value
Outline: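 Drug combinations with the LSD1 inhibitor iadademstat tested on tumor cells co-cultured as spheroids with endothelial cells and mesenchymal stem cells. Concentrations descended in half-log increments from clinical Cmax or 10 microM.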

[1] = second compound 0.1 µM, first compound 0.0316 µM
[2] = second compound 0.1 µM, first compound 0.1 µM
[3] = second compound 0.1 µM, first compound 0.316 µM
[4] = second compound 0.1 µM, first compound 1 µM
[5] = second compound 0.1 µM, first compound 3.16 µM
[6] = second compound 0.1 µM, first compound 10 µM
[7] = second compound 0.316 µM, first compound 0.0316 µM
[8] = second compound 0.316 µM, first compound 0.1 µM
[9] = second compound 0.316 µM, first compound 0.316 µM
[10] = second compound 0.316 µM, first compound 1 µM
[11] = second compound 0.316 µM, first compound 3.16 µM
[12] = second compound 0.316 µM, first compound 10 µM
[13] = second compound 1 µM, first compound 0.0316 µM
[14] = second compound 1 µM, first compound 0.1 µM
[15] = second compound 1 µM, first compound 0.316 µM
[16] = second compound 1 µM, first compound 1 µM
[17] = second compound 1 µM, first compound 3.16 µM
[18] = second compound 1 µM, first compound 10 µM
[19] = second compound 3.16 µM, first compound 0.0316 µM
[20] = second compound 3.16 µM, first compound 0.1 µM
[21] = second compound 3.16 µM, first compound 0.316 µM
[22] = second compound 3.16 µM, first compound 1 µM
[23] = second compound 3.16 µM, first compound 3.16 µM
[24] = second compound 3.16 µM, first compound 10 µM
[25] = second compound 10 µM, first compound 0.0316 µM
[26] = second compound 10 µM, first compound 0.1 µM
[27] = second compound 10 µM, first compound 0.316 µM
[28] = second compound 10 µM, first compound 1 µM
[29] = second compound 10 µM, first compound 3.16 µM
[30] = second compound 10 µM, first compound 10 µM
[31] = second compound 0.1 µM, first compound 0.00316 µM
[32] = second compound 0.1 µM, first compound 0.01 µM
[33] = second compound 0.316 µM, first compound 0.00316 µM
[34] = second compound 0.316 µM, first compound 0.01 µM
[35] = second compound 1 µM, first compound 0.00316 µM
[36] = second compound 1 µM, first compound 0.01 µM
[37] = second compound 3.16 µM, first compound 0.00316 µM
[38] = second compound 3.16 µM, first compound 0.01 µM
[39] = second compound 10 µM, first compound 0.00316 µM
[40] = second compound 10 µM, first compound 0.01 µM

CC(C)c1c(-c2ccccc2)nc2c(C#N)c[nH]n2c1=O + NC1CC1c1ccc(-c2cccc(O)c2)cc1
IC50 (second compound 0.1 µM): > 10000 nM | IC50 (second compound 0.316 µM): > 10000 nM | IC50 (second compound 1 µM): > 10000 nM | IC50 (second compound 3.16 µM): 9230 nM | IC50 (second compound 10 µM): > 10000 nM | viability, T/C [1]: 71.8% | viability, T/C [2]: 86% | viability, T/C [3]: 78.7% | viability, T/C [4]: 77.5% | viability, T/C [5]: 73.2% | viability, T/C [6]: 72.9% | viability, T/C [7]: 74.7% | viability, T/C [8]: 70.4% | viability, T/C [9]: 80.9% | viability, T/C [10]: 52.4% | viability, T/C [11]: 58.5% | viability, T/C [12]: 61.6% | viability, T/C [13]: 66.4% | viability, T/C [14]: 96.2% | viability, T/C [15]: 78.4% | viability, T/C [16]: 75% | viability, T/C [17]: 58.6% | viability, T/C [18]: 61.3% | viability, T/C [19]: 70.5% | viability, T/C [20]: 68.4% | viability, T/C [21]: 70% | viability, T/C [22]: 58.2% | viability, T/C [23]: 58.9% | viability, T/C [24]: 49.2% | viability, T/C [25]: 56.6% | viability, T/C [26]: 63% | viability, T/C [27]: 82.6% | viability, T/C [28]: 61.6% | viability, T/C [29]: 50.8% | viability, T/C [30]: 54.1%

CC1COCCN1c1cc(-c2ccnn2C)c2ccnc(-c3ccn[nH]3)c2n1 (stereo not given) + NC1CC1c1ccc(-c2cccc(O)c2)cc1
IC50 (second compound 0.1 µM): 48.5 nM | IC50 (second compound 0.316 µM): 23.8 nM | IC50 (second compound 1 µM): 37.2 nM | IC50 (second compound 3.16 µM): 36.8 nM | IC50 (second compound 10 µM): 31.3 nM | viability, T/C [31]: 65.2% | viability, T/C [32]: 62.7% | viability, T/C [1]: 51.6% | viability, T/C [2]: 42.9% | viability, T/C [3]: 39.4% | viability, T/C [4]: 26.6% | viability, T/C [33]: 55.5% | viability, T/C [34]: 55.6% | viability, T/C [7]: 49.7% | viability, T/C [8]: 40.6% | viability, T/C [9]: 39.1% | viability, T/C [10]: 31% | viability, T/C [35]: 63.7% | viability, T/C [36]: 51.1% | viability, T/C [13]: 55.4% | viability, T/C [14]: 46.6% | viability, T/C [15]: 30.6% | viability, T/C [16]: 28.8% | viability, T/C [37]: 58% | viability, T/C [38]: 54.3% | viability, T/C [19]: 54.7% | viability, T/C [20]: 38.2% | viability, T/C [21]: 40.2% | viability, T/C [22]: 22.6% | viability, T/C [39]: 67.1% | viability, T/C [40]: 51.5% | viability, T/C [25]: 50.3% | viability, T/C [26]: 41.6% | viability, T/C [27]: 40.2% | viability, T/C [28]: 24.9%

COc1ccc([C@@H](O)c2cc(-c3ncnc4cc(N5CCOCC5)ccc34)c(F)cc2Cl)nn1 + NC1CC1c1ccc(-c2cccc(O)c2)cc1
IC50 (second compound 0.1 µM): 616 nM | IC50 (second compound 0.316 µM): 463 nM | IC50 (second compound 1 µM): 664 nM | IC50 (second compound 3.16 µM): 355 nM | IC50 (second compound 10 µM): 351 nM | viability, T/C [1]: 78.6% | viability, T/C [2]: 79.9% | viability, T/C [3]: 55% | viability, T/C [4]: 44.4% | viability, T/C [5]: 31% | viability, T/C [6]: 21.9% | viability, T/C [7]: 76.4% | viability, T/C [8]: 76.8% | viability, T/C [9]: 52.2% | viability, T/C [10]: 38% | viability, T/C [11]: 37.3% | viability, T/C [12]: 22.1% | viability, T/C [13]: 72.9% | viability, T/C [14]: 76.6% | viability, T/C [15]: 60.3% | viability, T/C [16]: 43.7% | viability, T/C [17]: 31.7% | viability, T/C [18]: 26.4% | viability, T/C [19]: 69.5% | viability, T/C [20]: 64.8% | viability, T/C [21]: 49.2% | viability, T/C [22]: 38.5% | viability, T/C [23]: 30.5% | viability, T/C [24]: 19.7% | viability, T/C [25]: 60.5% | viability, T/C [26]: 58.4% | viability, T/C [27]: 50.3% | viability, T/C [28]: 40.2% | viability, T/C [29]: 27.5% | viability, T/C [30]: 20.5%

COc1cc(C2c3cc4c(cc3C(OC3OC5COC(C)OC5C(O)C3O)C3COC(=O)C23)OCO4)cc(OC)c1O (stereo not given) + NC1CCC(NC2CC2c2ccccc2)CC1
IC50 (second compound 0.1 µM): 2660 nM | IC50 (second compound 0.316 µM): > 3000 nM | IC50 (second compound 1 µM): > 3000 nM | IC50 (second compound 3.16 µM): > 3000 nM | IC50 (second compound 10 µM): > 3000 nM | viability, T/C (second compound 0.1 µM, first compound 0.00949 µM): 77% | viability, T/C (second compound 0.1 µM, first compound 0.03 µM): 76.8% | viability, T/C (second compound 0.1 µM, first compound 0.0949 µM): 80.5% | viability, T/C (second compound 0.1 µM, first compound 0.3 µM): 68.9% | viability, T/C (second compound 0.1 µM, first compound 0.949 µM): 78.7% | viability, T/C (second compound 0.1 µM, first compound 3 µM): 47% | viability, T/C (second compound 0.316 µM, first compound 0.00949 µM): 88.7% | viability, T/C (second compound 0.316 µM, first compound 0.03 µM): 94.4% | viability, T/C (second compound 0.316 µM, first compound 0.0949 µM): 75% | viability, T/C (second compound 0.316 µM, first compound 0.3 µM): 66.7% | viability, T/C (second compound 0.316 µM, first compound 0.949 µM): 58.4% | viability, T/C (second compound 0.316 µM, first compound 3 µM): 64.1% | viability, T/C (second compound 1 µM, first compound 0.00949 µM): 80.2% | viability, T/C (second compound 1 µM, first compound 0.03 µM): 80.2% | viability, T/C (second compound 1 µM, first compound 0.0949 µM): 74.2% | viability, T/C (second compound 1 µM, first compound 0.3 µM): 75% | viability, T/C (second compound 1 µM, first compound 0.949 µM): 66.7% | viability, T/C (second compound 1 µM, first compound 3 µM): 56.9% | viability, T/C (second compound 3.16 µM, first compound 0.00949 µM): 95.7% | viability, T/C (second compound 3.16 µM, first compound 0.03 µM): 70.9% | viability, T/C (second compound 3.16 µM, first compound 0.0949 µM): 71.8% | viability, T/C (second compound 3.16 µM, first compound 0.3 µM): 73.4% | viability, T/C (second compound 3.16 µM, first compound 0.949 µM): 58.9% | viability, T/C (second compound 3.16 µM, first compound 3 µM): 60.8% | viability, T/C (second compound 10 µM, first compound 0.00949 µM): 77% | viability, T/C (second compound 10 µM, first compound 0.03 µM): 80.9% | viability, T/C (second compound 10 µM, first compound 0.0949 µM): 72.1% | viability, T/C (second compound 10 µM, first compound 0.3 µM): 72.2% | viability, T/C (second compound 10 µM, first compound 0.949 µM): 58.4% | viability, T/C (second compound 10 µM, first compound 3 µM): 64.3%

Nc1ncn(C2CC(O)C(CO)O2)c(=O)n1 (stereo not given) + NC1CCC(NC2CC2c2ccccc2)CC1
IC50 (second compound 0.1 µM): > 1000 nM | IC50 (second compound 0.316 µM): > 1000 nM | IC50 (second compound 1 µM): > 1000 nM | IC50 (second compound 3.16 µM): > 1000 nM | IC50 (second compound 10 µM): > 1000 nM | viability, T/C [31]: 83.6% | viability, T/C [32]: 95.2% | viability, T/C [1]: 90% | viability, T/C [2]: 74.5% | viability, T/C [3]: 86.5% | viability, T/C [4]: 81.3% | viability, T/C [33]: 91.3% | viability, T/C [34]: 82.6% | viability, T/C [7]: 92.8% | viability, T/C [8]: 81.3% | viability, T/C [9]: 66.6% | viability, T/C [10]: 76.7% | viability, T/C [35]: 85.8% | viability, T/C [36]: 81.2% | viability, T/C [13]: 75.9% | viability, T/C [14]: 76.7% | viability, T/C [15]: 66.2% | viability, T/C [16]: 72.4% | viability, T/C [37]: 82.3% | viability, T/C [38]: 93.9% | viability, T/C [19]: 74.1% | viability, T/C [20]: 80.6% | viability, T/C [21]: 66.5% | viability, T/C [22]: 77.2% | viability, T/C [39]: 95.7% | viability, T/C [40]: 89.9% | viability, T/C [25]: 84.8% | viability, T/C [26]: 81.8% | viability, T/C [27]: 81.3% | viability, T/C [28]: 91.1%
